Literature values in patent US6352979B1, “Method of treating snakebite and complications resulting therefrom” (priority 2001, dated 2002).

Assays:
humans = details: doses exceeding 40 g/m^2
mice = details: doses higher than 3750 mg/kg (accepted oral LD50 for common table salt)
dogs = details: doses higher than 3750 mg/kg (accepted oral LD50 for common table salt)

Compound: [Cl-].[Na+] [common table salt]
- accepted oral LD50: 3750 mg/kg

Compound: O=S(=O)([O-])CCSSCCS(=O)(=O)[O-].[Na+].[Na+] [Dimesna, disodium 2,2′-dithiobis ethane sulfonate]
- adverse effects after administration to humans (humans): no adverse effects
- adverse effects after intravenous administration (mice): no adverse effects
- adverse effects after intravenous administration (dogs): no adverse effects
